Legend:
[1] = xn = mol fraction of the nth substance listed; settings: 303.15 K, 101 kPa, Liquid; for viscosity: Capillary tube (Ostwald / Ubbelohde) method; for excess molar volume: Direct dilatometry; for speed of sound: Linear variable-path acoustic interferometer
[2] = Liquid; for mass density: 101.33 kPa, Pycnometric method; for viscosity / speed of sound: 101.3 kPa; for viscosity: Capillary tube (Ostwald / Ubbelohde) method; for speed of sound: Linear variable-path acoustic interferometer; for Normal boiling temperature: Distillation

CC(C)OC(C)C [diisopropyl ether] + CCCCCC
[1]
Settings	excess molar volume [m3/mol]	speed of sound [m/s]	viscosity [mPa·s]
x1 = 0.1305	1.37e-07	1039.2	0.312
x1 = 0.2555	2.45e-07	1027.5	0.315
x1 = 0.392	3.26e-07	1016	0.319
x1 = 0.4661	3.44e-07	1009.9	0.321
x1 = 0.5633	3.34e-07	1002.6	0.325
x1 = 0.605	3.25e-07	999.6	0.326
x1 = 0.7173	2.79e-07	992.4	0.331
x1 = 0.846	1.74e-07	984.4	0.338
x1 = 1	–	974.9	0.35

CC(C)OC(C)C [diisopropyl ether] + CCCCCCC
[1]
Settings	excess molar volume [m3/mol]	speed of sound [m/s]	viscosity [mPa·s]
x1 = 0.1462	1.67e-07	1090.7	0.385
x1 = 0.2667	2.45e-07	1072.8	0.377
x1 = 0.4165	3.16e-07	1050.6	0.365
x1 = 0.4774	3.24e-07	1041.8	0.359
x1 = 0.5331	3.27e-07	1033.9	0.356
x1 = 0.6068	3.01e-07	1023.9	0.352
x1 = 0.7371	2.61e-07	1006.9	0.346
x1 = 0.8642	1.73e-07	991.3	0.345
x1 = 1	–	974.9	0.35

CC(C)OC(C)C [diisopropyl ether] + CCCCCCCC
[1]
Settings	excess molar volume [m3/mol]	speed of sound [m/s]	viscosity [mPa·s]
x1 = 0.165	1.58e-07	1125.5	0.464
x1 = 0.2501	2.26e-07	1112.3	0.451
x1 = 0.3816	2.95e-07	1090.5	0.429
x1 = 0.4395	3.04e-07	1080.3	0.417
x1 = 0.4911	3.02e-07	1071.7	0.404
x1 = 0.6217	2.78e-07	1048.3	0.381
x1 = 0.7805	2.03e-07	1018.9	0.36
x1 = 0.8706	1.26e-07	1000.4	0.354
x1 = 1	–	974.9	0.35

CC(C)OC(C)C [diisopropyl ether] + c1ccc2c(c1)CCCC2
[1], x1 = 1
Settings	speed of sound [m/s]	viscosity [mPa·s]
–	974.9	0.35

CC(C)OC(C)C [diisopropyl ether] + c1ccccc1
[1]
Settings	excess molar volume [m3/mol]	speed of sound [m/s]	viscosity [mPa·s]
x1 = 0.0962	-1.61e-07	1232.1	0.542
x1 = 0.1813	-2.87e-07	1201.5	0.522
x1 = 0.3084	-4.17e-07	1159.2	0.492
x1 = 0.3375	-4.42e-07	1148.4	0.486
x1 = 0.4703	-4.86e-07	1108.5	0.456
x1 = 0.6323	-4.62e-07	1064.1	0.422
x1 = 0.7927	-3.32e-07	1022.2	0.389
x1 = 1	–	974.9	0.35

CCCCCCC [heptane]
[2]
Settings	mass density [kg/m3]	speed of sound [m/s]	viscosity [mPa·s]
298.15 K	678.93	–	–
303.15 K	674.38	1110.5	0.387

Settings	Normal boiling temperature [°C]
[2]	98.20

CCCCCCC [heptane] + CC(C)OC(C)C
[1], x2 = 0
Settings	speed of sound [m/s]	viscosity [mPa·s]
–	1110.5	0.387

CCCCCC [hexane]
[2]
Settings	mass density [kg/m3]	speed of sound [m/s]	viscosity [mPa·s]
298.15 K	654.9	–	–
303.15 K	650.64	1052.9	0.309

Settings	Normal boiling temperature [°C]
[2]	68.70

CCCCCC [hexane] + CC(C)OC(C)C
[1], x2 = 0
Settings	speed of sound [m/s]	viscosity [mPa·s]
–	1052.9	0.309

CCCCCCCC [octane]
[2]
Settings	mass density [kg/m3]	speed of sound [m/s]	viscosity [mPa·s]
298.15 K	697.36	–	–
303.15 K	692.56	1152	0.477

Settings	Normal boiling temperature [°C]
[2]	126.00

CCCCCCCC [octane] + CC(C)OC(C)C
[1], x2 = 0
Settings	speed of sound [m/s]	viscosity [mPa·s]
–	1152	0.477

— the NIST ThermoML archive (doi:10.1016/j.tca.2005.10.008)
